Test results as given in article PMC10508484, “Development and application of a PBPK modeling strategy to support antimalarial drug development” (CPT: Pharmacometrics & Systems Pharmacology, 2023).
Where “and” joins values, the source holds several entries; their conditions need not be identical. Equal entries are not always repeated. Where two headings read alike, the source gives them in different places.

How the values were obtained:
[1] = cited from earlier work
[2] = PBPK simulation of drug-drug interactions (Simcyp V19); parameters: species or system human; conditions: ratio of simulated to clinically observed AUC ratio; DDI of the respective line of Table S3
Source text: Here, we provide three example applications where the available PBPK models were used to address questions relating to DDI assessment. […] Additional simulation methods are provided in Appendix S1.
All simulations, including the ones performed for the applications, were run using Version 19 of the Simcyp population-based PBPK simulator (Simcyp (Certara), Sheffield, UK) and unless stated otherwise, input parameters for all drugs are as specified (Supplementary Information Table S1). All simulations were run using ten virtual trials that were matched as closely as possible to the clinical study volunteers in terms of the number of subjects, their age, the proportion of males/females and according to the same study design.

[3] = cited from earlier work; remark: listed apart in the source
[4] = PBPK input, cited from earlier work
[5] = Hepatic / HLM intrinsic clearance, enzyme not defined; conditions: human
[6] = In vitro flags for victim and perpetrator properties conferring DDI liability; format: in vitro ADME, human; conditions: in vitro flag, mainly based on in vitro determinations
[7] = test system: Caco-2 cells; conditions: cited from earlier work
[8] = cited from earlier work; for Log D pH 7.4: lumefantrine: ACD labs value, ref Charman et al., 2020 1
[9] = cited from earlier work; for CL renal: PBPK input, ref amodiaquine, DEAQ Winstanley et al., atovaquone Rolan et al., 1997 14, azithromycin Lalak et al., 1993 23, carboxyprimaquine Mihaly et al., 1987 29, DHA EMA Website, 44, mefloquine Schwartz et al., 1982 57, primaquine White, 1985 62, pyrimeth
[10] = ref Charman et al., 2020 1; cited from earlier work
[11] = midazolam 7.5 mg QD + piperaquine 960 mg QD, ref Eurartesim - EMA Website, 12
[12] = midazolam 15 mg SD (Day 3) + azithromycin 500 mg QD (3 Days), ref Yeates et al., 1996 6
[13] = midazolam 15 mg SD (Day 3) + azithromycin 500 mg QD (3 Days), ref Zimmermann et al., 1996 7
[14] = midazolam 15 mg SD (Day 5) + azithromycin 500 mg QD (Day 1), 250 mg (Days 2-5), ref Backman et al., 1995 5
[15] = 1987 9, 1985 26, chloroquine Walker et al., doxycycline Raghuram et al., 1982 48, Nguyen et al., 1989 49, proguanil Jeppesen et al., 1997 34

SMILES: Cc1ncc2n1-c1ccc(Cl)cc1C(c1ccccc1F)=NC2 [Midazolam, midazolam]
- AUC ratio Obs [1, 11]: ≤ 2 fold
- Cmax ratio Obs [1, 11]: ≤ 2 fold
- AUC ratio Obs [1, 12]: 1.19
- Cmax ratio Obs [1, 12]: 1.52
- AUC ratio Obs [1, 13]: 1.27
- Cmax ratio Obs [1, 13]: 1.29
- AUC ratio Obs [1, 14]: 0.87
- Cmax ratio Obs [1, 14]: 0.66
- AUC ratios Sim/Obs [2]: 0.91 and 0.83 and 1.22

SMILES: COc1ncnc(NS(=O)(=O)c2ccc(N)cc2)c1OC [Sulfadoxine, sulfadoxine]
- AUC Obs ([3]; 500 mg SD, Caucasian, 0-inf, ref Weidekamm et al., 1982 35): 14168 µg·h/mL
- Cmax Obs ([3]; 500 mg SD, Caucasian, ref Weidekamm et al., 1982 35): 63.2 µg/mL
- AUC Obs ([3]; 500 mg SD, South-East Asian, 0-inf, ref Sarikabhuti et al., 1988 44): 26689 µg·h/mL
- Cmax Obs ([3]; 500 mg SD, South-East Asian, ref Sarikabhuti et al., 1988 44): 77.0 µg/mL
- AUC Obs ([3]; 500 mg weekly (20 weeks), 3360-3528 h, ref Schwartz et al., 1987 32): 12465 µg·h/mL
- Cmax Obs ([3]; 500 mg weekly (20 weeks), ref Schwartz et al., 1987 32): 121 µg/mL
- AUC Obs ([3]; 1500 mg SD, 0-inf, ref Karunajeewa et al., 2009 43): 33284 µg·h/mL
- Cmax Obs ([3]; 1500 mg SD, ref Karunajeewa et al., 2009 43): 142 µg/mL
- fu ([4]; ref Charman et al., 2020 1): 0.036
- fm additional / undefined metabolism [5]: 10%
- Risk as a perpetrator [6]: None identified
- Risk as a victim [6]: Renally cleared
- Caco-2 (Papp A-B) ([7]; calibrated against propranolol, plasma as medium for atovaquone and piperaquine, ref Charman et al., 2020 1): 15 10-6 cm/s
- Log D pH 7.4 [8]: -0.78
- CL renal [9, 15]: 0.035 L/h
- CL PO ([9]; clinically observed oral (in vivo) clearance, pyronaridine: blood, ref amodiaquine Winstanley et al., 1987 9, DEAQ Akande et al., 2015 8, Scarsi et al., 2014 35, Tarning et al., 2012 36, Orrell et al., 2008 37, DHA Na-Bangchang et al., 2004 42, lumefantrine Lefevre et al., 2002 52, Hoglund et al., 2015 53, mefloquine Charles et al., 2007 56, proguanil Jeppesen et al., 1997 34, pyronaridine Jittama): 0.039 L/h
- fe (fraction excreted unchanged in urine) ([9]; in vivo): 90%

SMILES: CC(C)NCC(O)COc1cccc2ccccc12 (stereo not shown) [Propranolol, propranolol]
- Papp A-B of calibrator ([7]; Caco-2): 72 10-6 cm/s

SMILES: CC[C@H]1OC(=O)[C@H](C)[C@@H](O[C@H]2C[C@@](C)(OC)[C@@H](O)[C@H](C)O2)[C@H](C)[C@@H](O[C@@H]2O[C@H](C)C[C@H](N(C)C)[C@H]2O)[C@](C)(O)C[C@@H](C)CN(C)[C@H](C)[C@@H](O)[C@]1(C)O [Azithromycin, azithromycin]
- AUC Obs ([3]; in vivo, 500 mg): 1.77 µg·h/mL
- Cmax Obs ([3]; in vivo, 500 mg): 0.41 µg/mL
- fu ([4]; ref atovaquone Mepron Prescribing Information, 2008, Nixon et al., 2013 13, Rolan et al., 1997 14, azithromycin Foulds et al., 1990 20, chloroquine Ofori-Adjei et al., 1986 27, Walker et al., 1983 28, DHA Batty et al., 2004 41 (healthy volunteers), lumefantrine CDER submission 22-269, proguanil Wattanagoon et al., 1987 63, tafenoquine Dow et al., 2020 84): 0.69
- Risk as a perpetrator [6]: CYP3A4 time‐dependent inhibitor
- Risk as a victim [6]: Cleared by biliary excretion
- Log P ([8]; ref PubChem/DrugBank): 4.02
- CL renal [9, 15]: 8.67 L/h

SMILES: COc1cc(NC(C)CCC(=O)O)c2ncccc2c1 (stereo not shown) [Carboxyprimaquine, carboxyprimaquine]
- AUC Obs ([3]; 15 mg QD (Day 14), 0-inf, ref Ward et al., 1985 14): 24.7 µg·h/mL
- Cmax Obs ([3]; 15 mg QD (Day 14), ref Ward et al., 1985 14): 1.24 µg/mL
- AUC Obs ([3]; 15 mg SD, 0-24 h, ref Mihaly et al., 1985 12): 15.1 µg·h/mL
- AUC Obs ([3]; 15 mg SD, 0-inf, ref Ward et al., 1985 14): 14.2 µg·h/mL
- Cmax Obs ([3]; 15 mg SD, ref Ward et al., 1985 14): 0.736 µg/mL
- AUC Obs ([3]; 30 mg SD, 0-inf, ref Hanboonkunupakarn et al., 2014 13): 44 µg·h/mL
- AUC Obs ([3]; 30 mg SD, 0-inf, ref Jittamala et al., 2015 15): 47.2 µg·h/mL
- Cmax Obs ([3]; 30 mg SD, ref Hanboonkunupakarn et al., 2014 13): 0.959 µg/mL
- Cmax Obs ([3]; 30 mg SD, ref Jittamala et al., 2015 15): 1.04 µg/mL
- AUC Obs ([3]; 45 mg SD, 0-24 h, ref Mihaly et al., 1985 12): 39.9 µg·h/mL

SMILES: C=C[C@H]1C[N@@]2CC[C@H]1C[C@H]2[C@H](O)c1ccnc2ccc(OC)cc12 [Quinine, quinine]
- AUC Obs ([3]; in vivo, 550 mg): 50.89 µg·h/mL
- Cmax Obs ([3]; in vivo, 550 mg): 2.848 µg/mL
- B:P [10]: 0.67
- Risk as a perpetrator [6]: CYP2D6 inhibitor
- Risk as a victim [6]: Substrate of CYP3A4

SMILES: C[C@H]1c2cccc(O)c2C(=O)C2=C(O)[C@]3(O)C(=O)C(C(N)=O)=C(O)[C@@H](N(C)C)[C@@H]3[C@@H](O)[C@@H]21 [Doxycycline, doxycycline]
- AUC Obs ([3]; 100 mg SD, 0-inf, first line, ref Malmborg, 1984 25): 40.1 µg·h/mL
- AUC Obs ([3]; 100 mg SD, 0-inf, ref Grahnen et al., 1994 24): 29.9 µg·h/mL
- AUC Obs ([3]; 100 mg SD, 0-inf, second line, ref Malmborg, 1984 25): 37.4 µg·h/mL
- Cmax Obs ([3]; 100 mg SD, ref Grahnen et al., 1994 24): 1.75 µg/mL
- AUC Obs ([3]; 100 mg q24h, 312-408 h, ref Binh et al., 2009 28): 37.3 µg·h/mL
- Cmax Obs ([3]; 100 mg q24h, ref Binh et al., 2009 28): 3.26 µg/mL
- AUC Obs ([3]; 200 mg SD, 0-inf, ref Wojcicki et al., 1985 26): 40.9 µg·h/mL
- Cmax Obs ([3]; 200 mg SD, ref Wojcicki et al., 1985 26): 2.61 µg/mL
- AUC Obs ([3]; 200 mg q24h, malaria-infected, 0-24 h, ref Newton et al., 2005 27): 32.0 µg·h/mL
- AUC Obs ([3]; 200 mg q24h, malaria-infected, 144-168 h, ref Newton et al., 2005 27): 48.6 µg·h/mL
- Cmax Obs ([3]; 200 mg q24h, malaria-infected, window 0-24 h, ref Newton et al., 2005 27): 3.17 µg/mL
- Cmax Obs ([3]; 200 mg q24h, malaria-infected, window 144-168 h, ref Newton et al., 2005 27): 4.44 µg/mL
- fu ([4]; ref Charman et al., 2020 1): 0.23
- Risk as a perpetrator [6]: None identified
- Risk as a victim [6]: Cleared by renal and biliary excretion
- Log D pH 7.4 [8]: -0.2
- CL renal [9, 15]: 0.87 L/h
- CL IV ([9]; clinically observed, ref atovaquone Lavelle et al., 1994 17, chloroquine Walker et al., 1987 29, Gustafsson et al., 1983 30, doxycycline Raghuram et al., 1982 48, Nguyen et al., 1989 49, primaquine Mihaly et al., 1985 26, quinine White et al., 1983 77, Paintaud et al., 1993 78): 2.77 L/h
